In US7384915B2, “Chimeric insulin-gad proteins for treating patients with type 1 diabetes or at risk of developing type 1 diabetes” (Alexion Pharmaceuticals, Inc., priority 1997, dated 2008):
Where two headings read alike, the source gives them in different places.

How the values were obtained:
[1] = test system: non-diabetic male NOD recipients
Experimental: CYTOXAN induction experiments: CYTOXAN (Cyclophosphamide) treatment can increase the incidence and accelerate the onset of diabetes in non-diabetic NOD mice. Randomly selected, non-diabetic male NOD mice, which were 100 to 110 days of age, were injected (ip) with cyclophosphamide (250 mg/kg) on day 0.
All the mice were subjected to urine glucose measurement 2-3 times per week for a period of 21 days after cyclophosphamide injection. The onset of diabetes was recorded as the first point at which two consecutive days of positive urine glucose results were obtained. Blood glucose was also measured to confirm the urine glucose results. […] At day 21, these mice were sacrificed and examined histologically.

[2] = test system: non-diabetic male NOD mice; assay: CYTOXAN (cyclophosphamide) induced IDDM model, antigen treatment; assay type: in vivo, mouse; conditions: FIG. 3
Excerpt: Experimental Methods Non-obese diabetic (NOD) mice are a strain of mice that are prone to the development of diabetes, and represent an accepted model system for the study of diabetes mellitus. These mice, designated NOD/MrkTacfBR, were purchased from Taconic Farms (Germantown, N.Y.). NOD SCID mice, designated NOD/SCID, are available from the Jackson Laboratories, Bar Harbor, Me. The incidence of diabetes by 200 days of age in these mice is 80% in females and 50% in males. At 110 days of age, fewer than 15% of the male NOD mice became diabetic. […] In contrast, animals treated with either ICB or either of GAD 65 250-273 or 520-555 peptides, experienced reductions to less than 50% incidence of diabetes. The therapeutic effects of treatment with combinations of ICB and the two GAD peptides were then examined (FIG. 3).

[3] = test system: NOD/SCID mice injected with diabetogenic spleen cells; assay: NOD/SCID adoptive transfer model of IDDM; assay type: in vivo, mouse; conditions: IV, 300 ugs of antigen twice daily every other day, day 3 to day 9 after spleen cell transfer; FIG. 5
Experimental: Experiments in the NOD/SCID Adoptive Transfer Model: Spleen mononuclear cells were harvested from diabetic NOD mice of recent disease onset (diabetic not more than 3 weeks) and about 35×10^6 of these spleen cells in 0.2 ml of PBS were injected intravenously into 6-8 week old NOD/SCID mice. Onset of diabetes was monitored biweekly by urine glucose testing and confirmed by blood glucose testing on day 28 relative to the time of spleen cell transfer. At day 28, these mice were sacrificed and examined histologically.
Diabetogenic splenic mononuclear cells were harvested from newly diabetic NOD mice (onset less than 3 weeks previous). To initiate the destruction of islet beta cells and the development of diabetes, 8-12 week old NOD/SCID mice were injected intravenously with 35×10^6 diabetogenic spleen cells. The incidence and onset of diabetes were monitored biweekly by urine glucose testing and confirmed by blood glucose testing at the end of the experiment. The average onset time of diabetes after disease induction was approximately 25 days. IV treatment with IG2, IG3, or islet beta cell antigens was initiated on day 3. Animals were treated with 300 ugs of antigen twice daily every other day for a period of six days (from day 3 to day 9, where the time of spleen cell transfer was day 0).

## O=P1(N(CCCl)CCCl)NCCCO1 (centres unmarked) [CYTOXAN, cyclophosphamide]
[1]; CYTOXAN 200 mg/kg
  # Diabetic/Total: 2/7
  % diabetic: 28.6%
  Mean onset time: 12
[1]; CYTOXAN 250 mg/kg
  # Diabetic/Total: 5/7
  % diabetic: 71.4%
  Mean onset time: 11
[1]; CYTOXAN 300 mg/kg
  # Diabetic/Total: 5/7
  % diabetic: 71.4%
  Mean onset time: 12.6

## GAD 65 520-555: human GAD 65 peptide 520-555, sequence corresponding to amino acid residues 139-173 of SEQ ID NO:2 (EERMSRLSKVAPVIKARMMEYGTTMVSYQPLGDKV; IG2 fusion protein for hGAD65 (human glutamate decarboxylase))
[2]
  effect of addition to the ICB with GAD 65 250-273 combination on therapeutic efficacy: appeared to inhibit the therapeutic efficacy

## ICB: Oxidized bovine insulin Chain B purchased from Sigma (catalog no. I-6383)
[3]
  onset of disease in NOD/SCID recipients: only a slight delay in disease onset
